Assay results as given in BindingDB's records for doi:10.1016/j.bmcl.2013.09.026 (Friedrich-Alexander University, 2013).

Target: Alpha-1 adrenergic receptor (Sus scrofa)
Test: Displacement of [3H]-prazosin from alpha1-adrenergic receptor in pig cerebral cortex

Compound: COc1ccccc1N1CCN(Cc2cn(CCOCCOCCF)nn2)CC1
- Ki: 490 nM

Compound: COc1ccccc1N1CCN(Cc2cn(CCCCCCF)nn2)CC1
- Ki: 110 nM
